One series deals with T1, Abl TK (Homo sapiens, UniProt P00519).
T1 construct: purchased Merck Millipore
Kind of series: BacKin assay, inhibition and substrate competition (surface-displayed abltide phosphorylation, flow cytometry). The class given is biochemical. As to conditions: for IC50: 0.5 U/mL Abl kinase, 30 min at 37°C, flow cytometry, biotin-anti-PY/SAPE, average of three independent experiments±SD. Background: Flow cytometry measures light scatter and fluorescence of single cells or particles in a stream.

The conditions of series [1]: one U = 1 nmol of phosphate incorporated into 50 µM abltide per minute at 30°C, 100 µM ATP; ref Merck Millipore; cited from earlier work. The method, then: The kinase activity of Bcr-Abl TK is located in the Abl domain (Figure 1). […] The activity of Abl TK was first examined using LC-MS. The time-course for phosphorylation of 60 µM of soluble abltide was followed with 0.5 U/mL Abl TK in kinase buffer (50 mM Tris-HCl, 10 mM MgCl2, 0.1 mM EDTA, 2 mM dithiothreitol and 0.01% (v/v) Brij 35, NEBuffer, New England BioLa ...

The test system of series [2] is Abl kinase. The series is described as follows: Validation of BacKin assay: fluorescence of kinase-treated displaying cells by flow cytometry. The class given is biochemical, Human. As to conditions: after 30 min incubation with Abl kinase; 585/42 nm.
Series [3] concerns Abl kinase. As to conditions: in words.

Residues, ends and D or L forms follow the SMILES beside them.

T1 sequence (P00519 whole entry): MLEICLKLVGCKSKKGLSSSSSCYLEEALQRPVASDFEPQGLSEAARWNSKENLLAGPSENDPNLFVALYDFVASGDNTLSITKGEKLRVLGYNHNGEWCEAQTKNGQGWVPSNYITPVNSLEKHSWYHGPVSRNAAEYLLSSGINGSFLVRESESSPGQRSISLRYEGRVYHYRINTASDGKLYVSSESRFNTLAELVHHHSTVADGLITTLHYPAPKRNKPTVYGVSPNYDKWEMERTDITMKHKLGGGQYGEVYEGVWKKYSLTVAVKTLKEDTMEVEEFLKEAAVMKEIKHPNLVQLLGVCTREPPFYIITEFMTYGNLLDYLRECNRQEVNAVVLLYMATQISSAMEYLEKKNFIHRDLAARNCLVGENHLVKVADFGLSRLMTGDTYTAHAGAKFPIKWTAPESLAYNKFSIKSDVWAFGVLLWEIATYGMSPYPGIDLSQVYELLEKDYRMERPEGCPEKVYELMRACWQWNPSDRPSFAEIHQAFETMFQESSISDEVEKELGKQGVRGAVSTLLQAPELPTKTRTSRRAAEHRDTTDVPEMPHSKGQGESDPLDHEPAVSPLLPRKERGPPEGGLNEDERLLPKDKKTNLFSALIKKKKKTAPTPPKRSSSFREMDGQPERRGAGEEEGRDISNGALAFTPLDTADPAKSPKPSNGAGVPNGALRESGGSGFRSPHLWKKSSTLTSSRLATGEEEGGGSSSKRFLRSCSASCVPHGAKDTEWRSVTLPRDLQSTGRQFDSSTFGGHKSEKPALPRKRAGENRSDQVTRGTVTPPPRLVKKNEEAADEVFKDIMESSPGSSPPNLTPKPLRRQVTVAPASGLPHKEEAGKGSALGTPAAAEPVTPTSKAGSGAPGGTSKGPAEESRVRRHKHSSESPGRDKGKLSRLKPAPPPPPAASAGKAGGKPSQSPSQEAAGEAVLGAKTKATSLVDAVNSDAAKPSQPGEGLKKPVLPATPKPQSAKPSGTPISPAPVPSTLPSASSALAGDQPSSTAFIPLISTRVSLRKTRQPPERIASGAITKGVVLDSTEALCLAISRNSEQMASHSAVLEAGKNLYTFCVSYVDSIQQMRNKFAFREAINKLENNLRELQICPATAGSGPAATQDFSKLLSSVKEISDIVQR

Consider `CC[C@H](C)[C@H](NC(=O)[C@H](C)NC(=O)[C@@H](N)CCC(=O)O)C(=O)N[C@@H](Cc1ccc(O)cc1)C(=O)N[C@@H](C)C(=O)N[C@@H](C)C(=O)N1CCC[C@H]1C(=O)N[C@@H](Cc1ccccc1)C(=O)N[C@@H](C)C(=O)N[C@@H](CCCCN)C(=O)N[C@@H](CCCCN)C(=O)N[C@@H](CCCCN)C(=O)O` [abltide] (H-EAIYAAPFAKKK-OH), for which the figures for the IC50 at Abl TK (50 µM ATP) and on Abl TK (500 µM ATP) were 21.5 ± 2.64 µM and 37.5 ± 3.95 µM, respectively.
As to “Abl TK: Human active Abl (121 kDa, 1067 U/mg, Merck Millipore)”, the specific activity in series [1] is 1067 U/mg.
“abltide-displaying cells: E. coli MC1061 displaying KKGEAIYAAPFA fused via spacer GGQSGQ to the N-terminus of the eCPX display scaffold”: the “percentage of fluorescent cells” value with Abl kinase [2] is reported as roughly 96%.
With EAIFAAPYAKKK [[Y4F,F8Y]], the “inhibition of kinase activity / competition” value at Abl TK (in words, peptide concentrations ranging from 64 to 0.25 µM, 0.5 U/mL kinase, 30 min, analogue tested with 500 µM ATP, average of two replicates) is given as “did not inhibit kinase activity in the concentration range tested”. Also, in the series on Abl kinase [3], the “phosphorylation by Abl kinase” value is recorded as “is not phosphorylated by Abl kinase”.

As a reminder, the IC50 is the concentration needed to halve the response being measured. The low end stands for greater potency in that assay, the high end for weaker potency in that assay.

The values are drawn from PMC3829888, “A Novel Quantitative Kinase Assay Using Bacterial Surface Display and Flow Cytometry” (PLoS ONE, 2013).
